Measured values reported in ChEMBL document CHEMBL5614433, “The "Doorstop Pocket" In Thioredoxin Reductases─An Unexpected Druggable Regulator of the Catalytic Machinery” (J Med Chem, 2024).

Assays:
[1] = target: T1, Thioredoxin glutathione reductase (Schistosoma mansoni) (UniProt Q962Y6); experiment: Inhibition of Schistosoma mansoni TGR at 66.7 uM incubated for 6 hrs in presence of NADPH
T1 sequence (whole entry): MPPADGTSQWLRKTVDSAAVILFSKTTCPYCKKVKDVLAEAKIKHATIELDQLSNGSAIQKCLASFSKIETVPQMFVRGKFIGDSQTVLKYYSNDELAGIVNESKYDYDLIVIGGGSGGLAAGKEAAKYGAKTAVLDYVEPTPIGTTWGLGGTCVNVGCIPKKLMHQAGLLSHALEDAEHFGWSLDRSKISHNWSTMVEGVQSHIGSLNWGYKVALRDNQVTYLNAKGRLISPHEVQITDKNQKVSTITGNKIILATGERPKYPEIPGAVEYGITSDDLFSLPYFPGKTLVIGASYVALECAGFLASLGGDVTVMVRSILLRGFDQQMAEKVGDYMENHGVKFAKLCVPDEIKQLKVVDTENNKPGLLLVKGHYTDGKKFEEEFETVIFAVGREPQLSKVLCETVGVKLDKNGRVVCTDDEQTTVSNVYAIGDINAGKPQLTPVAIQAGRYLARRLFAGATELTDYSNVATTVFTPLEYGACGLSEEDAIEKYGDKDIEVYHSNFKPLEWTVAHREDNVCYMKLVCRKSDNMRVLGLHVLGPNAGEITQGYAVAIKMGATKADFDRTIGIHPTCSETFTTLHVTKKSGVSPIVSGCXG

[2] = Inhibition of human TrxR1 incubated for 6 hrs in presence of NADPH
[3] = target: T2, Thioredoxin glutathione reductase (Schistosoma mansoni, UniProt Q962Y6); experiment: Inhibition of Schistosoma mansoni TGR incubated for 15 mins in presence of NADPH
T2 sequence (Q962Y6 whole entry): T1 sequence (whole entry)

[4] = Inhibition of human TrxR1 incubated for 15 mins in presence of NADPH
[5] = Selectivity ratio of IC50 for human TrxR1 to IC50 for Schistosoma mansoni TGR
[6] = tested on: Schistosoma mansoni; experiment: Schistosomicidal-activity against Schistosoma mansoni adult worm measured after 24 hrs; assay type: functional; conditions: read-out: LD50 (the source's name)
[7] = Cytotoxicity against african green monkey Vero cells measured after 24 hrs; assay type: toxicity, cell-based; conditions: chlorocebus sabaeus, read-out: LD50
[8] = Inhibition of human TrxR1

SMILES	inhibition [1]	IC50 [2]	further results
Cc1oc(-c2ccccc2)nc1CN[C@@H]1C[C@@H]2C[C@H]([C@H]1C)C2(C)C	28.7%	> 19 µM	
C#CCN(Cc1nc(-c2ccccc2)oc1C)C1C[C@@H]2C[C@H]([C@H]1C)C2(C)C (stereo partly drawn)			IC50 [3]: 2.5 µM; IC50 [4]: > 66.7 µM; Ratio IC50 [5]: 25; LC50 [6]: 15.7 µM; CC50 at 24 h [7]: > 100 µM
C[C@@H]1[C@H]2C[C@@H](C[C@H]1NCc1nc3ccccc3n1C1CCCCCC1)C2(C)C			IC50 [4]: 4.9 µM
C[C@@H]1[C@H]2C[C@@H](C[C@H]1NCc1cn([C@@H]3OC[C@@H](O)[C@H](O)[C@H]3O)c3ccccc13)C2(C)C			IC50 [3]: 57.5 µM
O=C(Nc1ccc(Cl)cc1)c1ccc([N+](=O)[O-])o1			IC50 [8]: 3.8 µM
Cc1oc(-c2ccc3c(c2)OCO3)nc1CN[C@@H]1C[C@@H]2C[C@H]([C@H]1C)C2(C)C	28.7%	> 19 µM	
Cc1oc(-c2ccc3ccccc3c2)nc1CNC1CCCCCC1	28.7%	> 19 µM	
Cc1oc(C2CCCCC2)nc1CN[C@@H]1C[C@@H]2C[C@H]([C@H]1C)C2(C)C	28.7%	> 19 µM	
CCc1ccccc1-c1nc(CN[C@@H]2C[C@@H]3C[C@H]([C@H]2C)C3(C)C)c(C)o1	28.7%	> 19 µM	
